# Experimental data as given in ChEMBL document CHEMBL1139809, “Antinociceptive activity of furan-containing congeners of improgan and ranitidine” (2007).
# System: Rattus norvegicus
# Assay: Antinociceptive activity in icv dosed Sprague-Dawley rat assessed as latency to hind lift after 10 mins by hot plate test
# Type: functional
row,Structure (SMILES),ED50
1,CN/C(=N/C#N)NCCCCCCc1ccc(CN(C)C)o1,120 nmol
2,CN(C)Cc1ccc(CCCCNC(=O)c2ccccc2)o1,203 nmol
3,CC(=O)NCCCCc1ccc(CN(C)C)o1,126 nmol
4,CN/C(=C/[N+](=O)[O-])NCCCCCCc1ccc(CN(C)C)o1,25 nmol
5,CN(C)Cc1ccc(CCCCCCNC(=O)Nc2ccccc2)o1,284 nmol
6,CN(C)Cc1ccc(CCCCc2ccccc2)o1,143 nmol
7,CN/C(=N/C#N)NCCCCc1ccc(CN(C)C)o1,159 nmol
8,CN(C)Cc1ccc(CCCCN)o1,689 nmol
9,CN(C)Cc1ccc(CCCCNc2ccccc2)o1,131 nmol
10,CN/C(=C/[N+](=O)[O-])NCCCCc1ccc(CN(C)C)o1,111 nmol
11,CN(C)Cc1ccc(CCCCCCNC(=O)Nc2ccc(I)cc2)o1,>149 nmol
12,CN(C)Cc1ccc(CCCCNC(=O)Nc2ccc(I)cc2)o1,>226 nmol
